Assay results as given in ChEMBL document CHEMBL3885881, “DrugMatrix”.

Organism: Rattus norvegicus
Test: DrugMatrix - Regimen: Daily Repeat
Format: toxicity, organism-based, Sprague-Dawley
Set-up: regimen Daily Repeat, gender Male, age 6-8 weeks
Details: in vivo, po, route oral GAVAGE, vehicle .5 % CMC; for ABSOLUTE BASOPHIL / ABSOLUTE EOSINOPHIL / ABSOLUTE LYMPHOCYTE / ABSOLUTE MONOCYTE / ABSOLUTE SEGMENTED NEUTROPHIL / BASOPHIL / EOSINOPHIL / ERYTHROCYTE COUNT / HEMATOCRIT / HEMOGLOBIN / LEUKOCYTE COUNT / LYMPHOCYTE / MEAN CORPUSCULAR HEMOGLOBIN / MEAN CORPUSCULAR HEMOGLOBIN CONCENTRATION / MEAN CORPUSCULAR VOLUME / MONOCYTE / NEUTROPHIL / NUCLEATED RED BLOOD CELLS / PLATELET COUNT: tissue Blood; for ALANINE AMINOTRANSFERASE / ALBUMIN / ALKALINE PHOSPHATASE / ASPARTATE AMINOTRANSFERASE / BLOOD UREA NITROGEN / CARBON DIOXIDE / CHLORIDE / CHOLESTEROL / CREATINE PHOSPHOKINASE / CREATININE / GLUCOSE / LACTATE DEHYDROGENASE / LIPASE / PHOSPHORUS / POTASSIUM / SODIUM / TOTAL BILIRUBIN / TOTAL PROTEIN / URIC ACID: tissue Plasma
[1] = 0 mg/kg, 72 h, dose level Control, time 3 day
[2] = 0 mg/kg, 120 h, dose level Control, time 5 day
[3] = 16 mg/kg, 72 h, dose level Low, time 3 day

In the case of `CCOC(=O)OC(C)OC1=C(C(=O)Nc2ccccn2)N(C)S(=O)(=O)c2ccccc21` (centres undefined) [AMPIROXICAM], the “ABSOLUTE BASOPHIL” value [1] is reported as 0 CELLS/uL, the “ABSOLUTE EOSINOPHIL” value [1] is reported as 15.17 CELLS/uL and the “ABSOLUTE LYMPHOCYTE” value [1] is reported as 10149.83 CELLS/uL. The “ABSOLUTE MONOCYTE” value [1] was 193.33 CELLS/uL, the “ABSOLUTE SEGMENTED NEUTROPHIL” value [1] was 1575 CELLS/uL and the BASOPHIL [1] was 0%. For the same molecule, the EOSINOPHIL [1] was 0.17%, the “ERYTHROCYTE COUNT” value [1] was 5.53 x10E6/uL and the HEMATOCRIT [1] was 34.7%. The HEMOGLOBIN [1] was 12.78 G/DL, the “LEUKOCYTE COUNT” value [1] was 11.93 x10E3/uL and the LYMPHOCYTE [1] was 85.5%. For the same molecule, the “MEAN CORPUSCULAR HEMOGLOBIN” value [1] was 23.15 pg, the “MEAN CORPUSCULAR HEMOGLOBIN CONCENTRATION” value [1] was 36.9 G/DL and the “MEAN CORPUSCULAR VOLUME” value [1] was 62.82 fL. For the same molecule, the MONOCYTE [1] was 1.5%, the NEUTROPHIL [1] was 12.83% and the “NUCLEATED RED BLOOD CELLS” value [1] was 0.5 /100WBC. The “PLATELET COUNT” value [1] was 994.17 x10E3/uL, the “ALANINE AMINOTRANSFERASE” value [1] was 48.17 u/L and the ALBUMIN [1] was 4.37 G/DL. The “ALKALINE PHOSPHATASE” value [1] was 436.5 u/L, the “ASPARTATE AMINOTRANSFERASE” value [1] was 83.17 u/L and the “BLOOD UREA NITROGEN” value [1] was 14.67 mg/dL. The “CARBON DIOXIDE” value [1] was 30.83 mmol/L, the CHLORIDE [1] was 99.17 MEQ/L and the CHOLESTEROL [1] was 86.33 mg/dL. The “CREATINE PHOSPHOKINASE” value [1] was 243.33 u/L, the CREATININE [1] was 0.25 mg/dL and the GLUCOSE [1] was 158 mg/dL. The “LACTATE DEHYDROGENASE” value [1] was 262.33 u/L, the LIPASE [1] was 11 u/L and the PHOSPHORUS [1] was 12.07 mg/dL. For the same molecule, the POTASSIUM [1] was 6.52 MEQ/L, the SODIUM [1] was 142.45 MEQ/L and the “TOTAL BILIRUBIN” value [1] was 0.17 mg/dL. For the same molecule, the “TOTAL PROTEIN” value [1] was 6.25 G/DL, the “URIC ACID” value [1] was 1.42 mg/dL and the “ABSOLUTE BASOPHIL” value [2] was 0 CELLS/uL. For the same molecule, the “ABSOLUTE EOSINOPHIL” value [2] was 0 CELLS/uL, the “ABSOLUTE LYMPHOCYTE” value [2] was 10076.67 CELLS/uL and the “ABSOLUTE MONOCYTE” value [2] was 124 CELLS/uL. The “ABSOLUTE SEGMENTED NEUTROPHIL” value [2] was 966 CELLS/uL, the BASOPHIL [2] was 0% and the EOSINOPHIL [2] was 0%. For the same molecule, the “ERYTHROCYTE COUNT” value [2] was 5.57 x10E6/uL, the HEMATOCRIT [2] was 33.37% and the HEMOGLOBIN [2] was 12.73 G/DL. The “LEUKOCYTE COUNT” value [2] was 11.17 x10E3/uL, the LYMPHOCYTE [2] was 90.33% and the “MEAN CORPUSCULAR HEMOGLOBIN” value [2] was 22.9 pg. For the same molecule, the “MEAN CORPUSCULAR HEMOGLOBIN CONCENTRATION” value [2] was 38.18 G/DL, the “MEAN CORPUSCULAR VOLUME” value [2] was 59.97 fL and the MONOCYTE [2] was 1%. For the same molecule, the NEUTROPHIL [2] was 8.67%, the “NUCLEATED RED BLOOD CELLS” value [2] was 0 /100WBC and the “PLATELET COUNT” value [2] was 1078 x10E3/uL. The “ALANINE AMINOTRANSFERASE” value [2] was 37.17 u/L, the ALBUMIN [2] was 4.2 G/DL and the “ALKALINE PHOSPHATASE” value [2] was 322.17 u/L. The “ASPARTATE AMINOTRANSFERASE” value [2] was 67.67 u/L, the “BLOOD UREA NITROGEN” value [2] was 14 mg/dL and the “CARBON DIOXIDE” value [2] was 27.67 mmol/L. For the same molecule, the CHLORIDE [2] was 102.17 MEQ/L, the CHOLESTEROL [2] was 67.67 mg/dL and the “CREATINE PHOSPHOKINASE” value [2] was 171.83 u/L. For the same molecule, the CREATININE [2] was 0.27 mg/dL, the GLUCOSE [2] was 172 mg/dL and the “LACTATE DEHYDROGENASE” value [2] was 85.33 u/L. For the same molecule, the LIPASE [2] was 8.67 u/L, the PHOSPHORUS [2] was 12 mg/dL and the POTASSIUM [2] was 6.09 MEQ/L. The SODIUM [2] was 144.82 MEQ/L, the “TOTAL BILIRUBIN” value [2] was 0.13 mg/dL and the “TOTAL PROTEIN” value [2] was 6.07 G/DL. For the same molecule, the “URIC ACID” value [2] was 2.13 mg/dL, the “ABSOLUTE BASOPHIL” value [3] was 0 CELLS/uL and the “ABSOLUTE EOSINOPHIL” value [3] was 0 CELLS/uL. The “ABSOLUTE LYMPHOCYTE” value [3] was 13036.33 CELLS/uL, the “ABSOLUTE MONOCYTE” value [3] was 91.33 CELLS/uL and the “ABSOLUTE SEGMENTED NEUTROPHIL” value [3] was 1372.33 CELLS/uL. For the same molecule, the BASOPHIL [3] was 0%, the EOSINOPHIL [3] was 0% and the “ERYTHROCYTE COUNT” value [3] was 5.36 x10E6/uL. The HEMATOCRIT [3] was 33.57%, the HEMOGLOBIN [3] was 12.5 G/DL and the “LEUKOCYTE COUNT” value [3] was 14.5 x10E3/uL. For the same molecule, the LYMPHOCYTE [3] was 89.33%, the “MEAN CORPUSCULAR HEMOGLOBIN” value [3] was 23.33 pg and the “MEAN CORPUSCULAR HEMOGLOBIN CONCENTRATION” value [3] was 37.23 G/DL. The “MEAN CORPUSCULAR VOLUME” value [3] was 62.67 fL, the MONOCYTE [3] was 0.67% and the NEUTROPHIL [3] was 10%. The “NUCLEATED RED BLOOD CELLS” value [3] was 0 /100WBC, the “PLATELET COUNT” value [3] was 1061.33 x10E3/uL and the “ALANINE AMINOTRANSFERASE” value [3] was 57.33 u/L. The ALBUMIN [3] was 4.3 G/DL, the “ALKALINE PHOSPHATASE” value [3] was 431 u/L and the “ASPARTATE AMINOTRANSFERASE” value [3] was 100.67 u/L. For the same molecule, the “BLOOD UREA NITROGEN” value [3] was 12.67 mg/dL, the “CARBON DIOXIDE” value [3] was 32.33 mmol/L and the CHLORIDE [3] was 101.33 MEQ/L. The CHOLESTEROL [3] was 86.33 mg/dL, the “CREATINE PHOSPHOKINASE” value [3] was 214.33 u/L and the CREATININE [3] was 0.25 mg/dL. The GLUCOSE [3] was 155.33 mg/dL, the “LACTATE DEHYDROGENASE” value [3] was 113.33 u/L and the LIPASE [3] was 11.67 u/L. The PHOSPHORUS [3] was 11.83 mg/dL, the POTASSIUM [3] was 6.74 MEQ/L and the SODIUM [3] was 145.43 MEQ/L. The “TOTAL BILIRUBIN” value [3] was 0.13 mg/dL, the “TOTAL PROTEIN” value [3] was 6.13 G/DL and the “URIC ACID” value [3] was 1.73 mg/dL.
